Reference: publication PMC8621570, “Mechanistic Studies of Antibiotic Adjuvants Reducing Kidney’s Bacterial Loads upon Systemic Monotherapy” (Pharmaceutics, 2021)

Experiments:
[1] = Hydrophobicity by reversed phase HPLC elution; type: physicochemical; conditions: % acetonitrile required for elution in reversed phase HPLC, C18 column; rounded to nearest whole number
E. coli 25922 [2] = experiment: Thigh infection model; type: in vivo, mouse; conditions: 12.5 mg/kg S.C at 1 and 3 h post-infection, CFU/thigh at 24 h, 8 mice per group
Experimental: (§1) Animals: All animal studies were performed using male ICR mice (25 ± 2 gr). The Technion Animal Care and Use committee approved all procedures, care, and handling of animals. Ethics approval codes: IL0800519, IL0640421, IL0550618, IL1811217.
For efficacy assessments, three infection models were used including one with topical treatment and two with systemic treatment. • Excisional skin wound infection model: mice were anesthetized by intraperitoneal administration of a mixture of ketamine 100 mg/kg and xylazine 5 mg/kg in PBS and their backs shaved with electric clippers. The following day mice were similarly anesthetized and were administrated (S.C) 0.05 mg/kg buprenorphine (for pain relief). A 5 mm diameter piece of skin was removed from the middle of the shaved back, with sterile biopsy punch resulting in a full-thickness injury. A total of 20 µL of a mid-logarithmic culture, containing 5 × 10^6 CFU P. aeruginosa 27853 were applied on the wound. […] The number of viable bacteria was determined after overnight incubation at 37 °C. […] The number of viable bacteria was determined after overnight incubation at 37 °C. […] The number of viable bacteria was determined after overnight incubation at 37 °C. […]

P. aeruginosa 27853 = experiment: Excisional skin wound infection model, topical treatment; type: in vivo, mouse; conditions: 4 h treatment, mice n = 3 per group
Experimental: as §1
(§2) For efficacy assessments, three infection models were used including one with topical treatment and two with systemic treatment. • Excisional skin wound infection model: mice were anesthetized by intraperitoneal administration of a mixture of ketamine 100 mg/kg and xylazine 5 mg/kg in PBS and their backs shaved with electric clippers. The following day mice were similarly anesthetized and were administrated (S.C) 0.05 mg/kg buprenorphine (for pain relief). A 5 mm diameter piece of skin was removed from the middle of the shaved back, with sterile biopsy punch resulting in a full-thickness injury. A total of 20 µL of a mid-logarithmic culture, containing 5 × 10^6 CFU P. aeruginosa 27853 were applied on the wound. Then, 15 min after inoculation, about 50 µL of hypromellose gel (prepared as described) containing OAC, antibiotic, or their combination were applied on the skin and covered with a piece of medical tape. As a control, the vehicle (drug-free gel) was similarly applied on the skin. After a treatment period of 4 h, about 8 mm diameter of skin surrounding the infected area was removed, suspended in PBS, homogenized, serially diluted 10-fold, and plated for CFU enumeration. The number of viable bacteria was determined after overnight incubation at 37 °C. The lower limit of detection was 50 CFU/wound. • Thigh infection model (TI): mice were inoculated intramuscularly with 1 × 10^6 CFU/mouse of mid-logarithmic E. coli 25922 and treated subcutaneously 1 and 3 h after inoculation. Mice were sacrificed 24 h after infection, their thighs excised, homogenized, serially diluted 10-fold, and plated for CFU enumeration. The number of viable bacteria was determined after overnight incubation at 37 °C. […] The number of viable bacteria was determined after overnight incubation at 37 °C. […]

Maximum tolerated dose = type: in vivo, mouse; conditions: single-dose subcutaneous, uninfected ICR mice, three mice per dose, monitored 7 days
Experimental: as §1
The maximum tolerated dose (MTD) was determined after a single-dose subcutaneous (S.C) administration of C14(ω5)OOc10O using three mice per dose. Animals were monitored for adverse effects for 7 days after injection.

E. coli 25922 [3] = type: cell-based, Escherichia coli; conditions: 25922, 24 h
Experimental: Sensitization to plasma components was assessed by mixing bacteria with serial two-fold OAC dilutions in 80% human plasma (Israel Blood Bank) or plasma from the specified species (Technion preclinical research authority or VetSource), as described. Data were obtained from three independent experiments.
Figure 3 Animal plasma antibacterial activities against E. coli 25922. (a) Dose-dependent reduction of colony forming units (CFU) as determined 24 h after exposure to C14(ω5)OOc10O in human plasma (80% final plasma concentration in PBS). Values represent the mean ± SD obtained from three individual plasma donors (mean inoculum was 1.6 ± 0.8 × 10^6 CFU/mL). (b) Time-kill kinetics determined upon E. coli exposure to 0, 2.5, 5, and 10 µM C14(ω5)OOc10O (from top to bottom, respectively). Values represent the mean ± SD obtained from two individual plasma samples, each subjected to two independent assays. Panels (c–f), respectively, show the OAC’s concentration-dependent activities in plasma samples obtained from pig, cat, sheep, and dog. The three dashed horizontal lines respectively represent the average CFU count of the vehicle control (upper line), the inoculum (middle line), and the limit of detection (lower line), i.e., log10 50 CFU/mL = 1.69. Green stars (*) denote lack of detectable CFU.

E. coli UPEC CFT073 = experiment: Urinary tract infection model; type: in vivo, mouse
Experimental: as §1, §2

## CCCCC=CCCCCCCCC(=O)N[C@@H](CCCN)C(=O)N[C@@H](CCCN)C(=O)NCCCCCCCCCC(=O)N[C@@H](CCCN)C(N)=O [C14(ω5)OOc10O]
[1]
  H, hydrophobicity: 50%
E. coli 25922 [2]
  Effect on thigh bacterial loads: unable to reduce bacterial loads
P. aeruginosa 27853; hypromellose gel 0.2% (w/v)
  Reduction of CFU count: 0.5 log10 units
P. aeruginosa 27853; hypromellose gel 1% (w/v)
  Reduction of CFU count: 1.9 log10 units
Maximum tolerated dose
  Maximal tolerated dose (MTD): higher than 40 mg/kg
E. coli 25922 [3]
  MIC, cat plasma: ≥ 20 µM
  MIC, dog plasma: ≥ 20 µM
  MIC, human plasma: 2.5 to 5 µM
E. coli UPEC CFT073; 12.5 mg/kg S.C at 1 and 6 h post-infection, CFU at 24 h
  Effect on bladder CFU counts: not those of the bladder
E. coli UPEC CFT073; 12.5 mg/kg S.C at 1 and 6 h post-infection, CFU at 24 h, 10 mice per group, dead control mice not included
  Reduction of kidneys' CFU counts: > 2 orders of magnitude
E. coli UPEC CFT073; as above, if the two dead PBS-treated control mice were taken into consideration
  Gap of kidneys' CFU counts with the treated group: four
